In US20240409585A1, “MACROCYCLIC IMMUNOMODULATORS” (priority 2021, published 2024):
Bridge positions count the residues as written; N and C are the ends. Square brackets hold non-standard residues; d marks the D form. Peptide text beside a SMILES is read from it. * marks the point of attachment. ξ: configuration not given here. Phe(3-CF3) = N[C@@H](Cc1cccc(C(F)(F)F)c1)C(=O)O; Ala(morpholin-4-yl) = N[C@@H](CN1CCOCC1)C(=O)O; Phe(3-COOH) = N[C@@H](Cc1cccc(C(=O)O)c1)C(=O)O; Phe(4-COOH) = N[C@@H](Cc1ccc(C(=O)O)cc1)C(=O)O; Bip = N[C@@H](Cc1ccc(-c2ccccc2)cc1)C(=O)O; Phe(3-CN) = N#Cc1cccc(C[C@H](N)C(=O)O)c1; Phe(4-CN) = N#Cc1ccc(C[C@H](N)C(=O)O)cc1; Phe(2-Br) = N[C@@H](Cc1ccccc1Br)C(=O)O; Phe(3-Me) = Cc1cccc(C[C@H](N)C(=O)O)c1; Cha = N[C@@H](CC1CCCCC1)C(=O)O; Cit = NC(=O)NCCC[C@H](N)C(=O)O; Thr(3ξ) = CC(O)[C@H](N)C(=O)O; Carboxymethyl = O=C(O)C*; NMeA = CN[C@@H](C)C(=O)O; Orn = NCCC[C@H](N)C(=O)O; Dab = NCC[C@H](N)C(=O)O; Dap = NC[C@H](N)C(=O)O

molecular target: T1, PE-labeled human PD-L1-Ig binding to Jurkat cell line over-expressing human PD-1 (Jurkat-PD-1) (Homo sapiens, UniProt Q15116); assay: Jurkat-PD-1 Cell Binding High-Content Screening Assay (CBA): Method 1; conditions: Jurkat-hPD-1 cells, PE-labeled PD-L1-Ig 20 nM final; read-out: Jurkat HPDL1 PD1 IC50 (uM) (Method 1)
T1 construct: expressed in transfected cells; host or cells: Jurkat
T1 sequence (Q15116 25-288): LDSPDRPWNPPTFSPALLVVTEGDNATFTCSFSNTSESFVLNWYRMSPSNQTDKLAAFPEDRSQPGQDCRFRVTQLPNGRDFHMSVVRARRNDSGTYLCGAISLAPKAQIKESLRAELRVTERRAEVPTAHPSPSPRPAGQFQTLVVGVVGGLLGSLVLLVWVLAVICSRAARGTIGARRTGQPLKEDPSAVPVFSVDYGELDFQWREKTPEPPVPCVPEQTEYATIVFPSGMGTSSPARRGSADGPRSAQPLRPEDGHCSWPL

Row | IC50 [µM] | Structure (SMILES)
1 | 0.03 | CC(C)C[C@@H]1NC(=O)[C@H](CCCNC(=N)N)NC(=O)[C@@H](CC(C)C)NC(=O)[C@H](C)N(C)C(=O)[C@H](CCC(=O)O)NC(=O)[C@H](Cc2ccc(-c3ccccc3)cc2)NC(=O)[C@H](C(C)C)NC(=O)[C@H](Cc2c[nH]c3ccccc23)NC(=O)[C@H](CC(=O)O)NC(=O)[C@H](Cc2ccc(O)cc2)NC(=O)[C@H](CC(N)=O)NC(=O)CSC[C@@H](C(=O)N[C@@H](C)C(N)=O)NC(=O)[C@H]([C@@H](C)O)NC(=O)[C@H](C(C)C)NC1=O [Compound 1254] ({CH2CO}-NYDWV[Bip]E[NMeA][dL]RLVTCA-NH2; thioether N-14)
2 | 0.11 | CC(C)C[C@H]1NC(=O)[C@H](C)N(C)C(=O)[C@H](CCC(N)=O)NC(=O)[C@H](Cc2ccc(-c3ccccc3)cc2)NC(=O)[C@H](Cc2ccc(C(=O)O)cc2)NC(=O)[C@H](Cc2cccc(C(F)(F)F)c2)NC(=O)[C@H](CC(=O)O)NC(=O)[C@H](Cc2ccc(OCC(=O)O)cc2)NC(=O)[C@H](CN2CCOCC2)NC(=O)CSC[C@@H](C(=O)N[C@@H](CCN)C(N)=O)NC(=O)[C@H](CCCN)NC(=O)[C@H](C(C)C)NC(=O)[C@H](CC2CCCCC2)NC(=O)[C@H](CCN)NC1=O [Example 2272] ({CH2CO}-[Ala(morpholin-4-yl)]Y(Carboxymethyl)D[Phe(3-CF3)][Phe(4-COOH)][Bip]Q[NMeA][dL][Dab][Cha]V[Orn]C[Dab]-NH2; thioether N-14)
3 | 0.1 | CC(C)C[C@@H]1NC(=O)[C@H](CCN)NC(=O)[C@@H](CC(C)C)NC(=O)[C@H](C)N(C)C(=O)[C@H](CCCNC(N)=O)NC(=O)[C@H](Cc2ccc(-c3ccccc3)cc2)NC(=O)[C@H](C(C)C)NC(=O)[C@H](Cc2c[nH]c3ccccc23)NC(=O)[C@H](CC(=O)O)NC(=O)[C@H](Cc2ccc(C#N)cc2)NC(=O)[C@H](CN)NC(=O)CSC[C@@H](C(=O)N[C@@H](C)C(N)=O)NC(=O)[C@H]([C@@H](C)O)NC(=O)[C@H](C(C)C)NC1=O [Compound 1408] ({CH2CO}-[Dap][Phe(4-CN)]DWV[Bip][Cit][NMeA][dL][Dab]LVTCA-NH2; thioether N-14)
4 | 0.1 | Cc1cccc(C[C@@H]2NC(=O)[C@H](CC(=O)O)NC(=O)[C@H](Cc3ccc(OCC(=O)O)cc3)NC(=O)[C@H](C(C)O)NC(=O)CSC[C@@H](C(N)=O)NC(=O)[C@H](CCCCN)NC(=O)[C@H](C(C)C)NC(=O)[C@H](CC(C)C)NC(=O)[C@H](CC(N)=O)NC(=O)[C@@H](CC(C)C)NC(=O)[C@H](C)N(C)C(=O)[C@H](C(C)C)NC(=O)[C@H](Cc3ccc(-c4ccccc4)cc3)NC(=O)[C@H](CC(C)C)NC2=O)c1 (stereo partly drawn) [Compound 2259] ({CH2CO}-[Thr(3ξ)]Y(Carboxymethyl)D[Phe(3-Me)]L[Bip]V[NMeA][dL]NLVKC-NH2; thioether N-14)
5 | 0.11 | CC(C)C[C@@H]1NC(=O)[C@H](CCN)NC(=O)[C@@H](CC(C)C)NC(=O)[C@H](C)N(C)C(=O)[C@H](CCCNC(=N)N)NC(=O)[C@H](Cc2ccc(-c3ccccc3)cc2)NC(=O)[C@H](C(C)C)NC(=O)[C@H](Cc2c[nH]c3ccccc23)NC(=O)[C@H](CC(=O)O)NC(=O)[C@H](Cc2cccc(C#N)c2)NC(=O)[C@H](CC(N)=O)NC(=O)CSC[C@@H](C(=O)N[C@@H](C)C(N)=O)NC(=O)[C@H]([C@@H](C)O)NC(=O)[C@H](C(C)C)NC1=O [Compound 1308] ({CH2CO}-N[Phe(3-CN)]DWV[Bip]R[NMeA][dL][Dab]LVTCA-NH2; thioether N-14)
6 | 0.05 | CC(C)C[C@@H]1NC(=O)[C@H](CCN)NC(=O)[C@@H](CC(C)C)NC(=O)[C@H](C)N(C)C(=O)[C@H](C(C)C)NC(=O)[C@H](Cc2ccc(-c3ccccc3)cc2)NC(=O)[C@H](C(C)C)NC(=O)[C@H](Cc2c[nH]c3ccccc23)NC(=O)[C@H](CC(=O)O)NC(=O)[C@H](Cc2ccc(C#N)cc2)NC(=O)[C@H](CN)NC(=O)CSC[C@@H](C(=O)N[C@@H](C)C(N)=O)NC(=O)[C@H]([C@@H](C)O)NC(=O)[C@H](C(C)C)NC1=O [Compound 1435] ({CH2CO}-[Dap][Phe(4-CN)]DWV[Bip]V[NMeA][dL][Dab]LVTCA-NH2; thioether N-14)
7 | 0.04 | Cc1cccc(C[C@@H]2NC(=O)[C@H](CC(=O)O)NC(=O)[C@H](Cc3ccc(C(=O)O)cc3)NC(=O)[C@H](CN)NC(=O)CSC[C@@H](C(=O)N[C@@H](C)C(N)=O)NC(=O)[C@H]([C@@H](C)O)NC(=O)[C@H](C(C)C)NC(=O)[C@H](CC(C)C)NC(=O)[C@H](CCN)NC(=O)[C@@H](CC(C)C)NC(=O)[C@H](C)N(C)C(=O)[C@H](C(C)C)NC(=O)[C@H](Cc3ccc(-c4ccccc4)cc3)NC(=O)[C@H](C(C)C)NC2=O)c1 [Compound 1415] ({CH2CO}-[Dap][Phe(4-COOH)]D[Phe(3-Me)]V[Bip]V[NMeA][dL][Dab]LVTCA-NH2; thioether N-14)
8 | 0.01 | CC(C)C[C@@H]1NC(=O)[C@H](Cc2c[nH]c3ccccc23)NC(=O)[C@H](CC(=O)O)NC(=O)[C@H](Cc2ccc(C(=O)O)cc2)NC(=O)[C@H](Cc2cccc(C(=O)O)c2)NC(=O)CSC[C@@H](C(=O)NCC(N)=O)NC(=O)[C@H](CO)NC(=O)[C@H](C(C)C)NC(=O)[C@H](CC2CCCCC2)NC(=O)[C@H](CCN)NC(=O)[C@@H](CC(C)C)NC(=O)[C@H](C)N(C)C(=O)[C@H](C(C)C)NC(=O)[C@H](Cc2ccc(-c3ccccc3)cc2)NC1=O [Compound 1879] ({CH2CO}-[Phe(3-COOH)][Phe(4-COOH)]DWL[Bip]V[NMeA][dL][Dab][Cha]VSCG-NH2; thioether N-14)
9 | 0.11 | CC(C)C[C@H]1NC(=O)[C@H](C)N(C)C(=O)[C@H](CCC(N)=O)NC(=O)[C@H](Cc2ccc(-c3ccccc3)cc2)NC(=O)[C@H](Cc2ccc(C(=O)O)cc2)NC(=O)[C@H](Cc2cccc(C(F)(F)F)c2)NC(=O)[C@H](CC(N)=O)NC(=O)[C@H](Cc2ccc(C(=O)O)cc2)NC(=O)[C@H](CN2CCOCC2)NC(=O)CSC[C@@H](C(=O)N[C@@H](CCN)C(N)=O)NC(=O)[C@H](CCCN)NC(=O)[C@H](C(C)C)NC(=O)[C@H](CC2CCCCC2)NC(=O)[C@H](CCN)NC1=O [Example 2279] ({CH2CO}-[Ala(morpholin-4-yl)][Phe(4-COOH)]N[Phe(3-CF3)][Phe(4-COOH)][Bip]Q[NMeA][dL][Dab][Cha]V[Orn]C[Dab]-NH2; thioether N-14)
10 | 0.09 | CC[C@H](C)[C@@H]1NC(=O)[C@H](Cc2ccc(-c3ccccc3)cc2)NC(=O)[C@H](C(C)C)NC(=O)[C@H](Cc2c[nH]c3ccccc23)NC(=O)[C@H](CC(=O)O)NC(=O)[C@H](Cc2ccc(O)cc2)NC(=O)[C@H](Cc2ccccc2)NC(=O)CSC[C@@H](C(=O)N[C@@H](C)C(N)=O)NC(=O)[C@H]([C@@H](C)O)NC(=O)[C@H](C(C)C)NC(=O)[C@H](CC(C)C)NC(=O)[C@H](CCCNC(=N)N)NC(=O)[C@@H](CC(C)C)NC(=O)[C@H](C)N(C)C1=O [Compound 1491] ({CH2CO}-FYDWV[Bip]I[NMeA][dL]RLVTCA-NH2; thioether N-14)
11 | 0.6 | CC(C)C[C@@H]1NC(=O)[C@H](Cc2c[nH]c3ccccc23)NC(=O)[C@H](CC(=O)O)NC(=O)[C@H](Cc2ccccc2Br)NC(=O)[C@H](Cc2ccccc2)NC(=O)CSC[C@@H](C(=O)N[C@@H](C)C(N)=O)NC(=O)[C@H](CO)NC(=O)[C@H](C(C)C)NC(=O)[C@H](CC(C)C)NC(=O)[C@H](CC(N)=O)NC(=O)[C@@H](C)NC(=O)[C@H](C)N(C)C(=O)[C@H](C(C)C)NC(=O)[C@H](Cc2ccc(-c3ccccc3)cc2)NC1=O [Compound 1823] ({CH2CO}-F[Phe(2-Br)]DWL[Bip]V[NMeA][dA]NLVSCA-NH2; thioether N-14)
